Reference: ChEMBL document CHEMBL5233210, “Pyrazolone structural motif in medicinal chemistry: Retrospect and prospect” (Eur J Med Chem, 2020)
Values after ≈ are worked out from the molar mass of the structure shown.

What was measured:
Liver carboxylesterase 1 = Liver carboxylesterase 1 (Homo sapiens, UniProt P23141); experiment: Inhibition of human CE1
Alpha-glucosidase = Alpha-glucosidase (Saccharomyces cerevisiae S288c, UniProt P53341+P38158+P07265); experiment: Inhibition of Saccharomyces cerevisiae alpha glucosidase; assay type: protein assay
Mus musculus [1] = organism: Mus musculus; experiment: Antihyperglycemic activity in mouse assessed as reduction in serum glucose ratio after 2 hrs; assay type: functional; design: scale not given: the % may be the effect or the level left
Mus musculus [2] = organism: Mus musculus; experiment: Antihyperglycemic activity in mouse assessed as reduction in serum glucose ratio after 7 days; assay type: functional; design: scale not given: the % may be the effect or the level left; details: time 7 day
[3] = Inhibition of porcine alpha amylase; design: species or system Sus scrofa
Mus musculus [4] = experiment: Antihyperglycemic activity in db/db mouse assessed as decrease in blood glucose level at 100 mg/kg; assay type: functional; design: scale not given: the % may be the effect or the level left
Mus musculus [5] = experiment: Antihyperglycemic activity in db/db mouse assessed as decrease in blood glucose level at 20 mg/kg; assay type: functional; design: scale not given: the % may be the effect or the level left
Mus musculus [6] = experiment: Antihyperglycemic activity in db/db mouse assessed as decrease in blood glucose level at 2 mg/kg; assay type: functional; design: scale not given: the % may be the effect or the level left
[7] = Selectivity index, ratio of IC50 mouse […] 3T3 cells to MIC for Mycobacterium tuberculosis H37Rv; assay type: toxicity; details: NIH 3T3 cells, read-out: Selectivity Index
[8] = tested on: Mycobacterium tuberculosis; experiment: Antibacterial activity against Mycobacterium tuberculosis H37Rv; assay type: functional
[9] = target: Aldo-keto reductase family 1 member B1 (Homo sapiens, UniProt P15121); experiment: Inhibition of aldose reductase (unknown origin)

Chain of Liver carboxylesterase 1 (P23141 whole entry): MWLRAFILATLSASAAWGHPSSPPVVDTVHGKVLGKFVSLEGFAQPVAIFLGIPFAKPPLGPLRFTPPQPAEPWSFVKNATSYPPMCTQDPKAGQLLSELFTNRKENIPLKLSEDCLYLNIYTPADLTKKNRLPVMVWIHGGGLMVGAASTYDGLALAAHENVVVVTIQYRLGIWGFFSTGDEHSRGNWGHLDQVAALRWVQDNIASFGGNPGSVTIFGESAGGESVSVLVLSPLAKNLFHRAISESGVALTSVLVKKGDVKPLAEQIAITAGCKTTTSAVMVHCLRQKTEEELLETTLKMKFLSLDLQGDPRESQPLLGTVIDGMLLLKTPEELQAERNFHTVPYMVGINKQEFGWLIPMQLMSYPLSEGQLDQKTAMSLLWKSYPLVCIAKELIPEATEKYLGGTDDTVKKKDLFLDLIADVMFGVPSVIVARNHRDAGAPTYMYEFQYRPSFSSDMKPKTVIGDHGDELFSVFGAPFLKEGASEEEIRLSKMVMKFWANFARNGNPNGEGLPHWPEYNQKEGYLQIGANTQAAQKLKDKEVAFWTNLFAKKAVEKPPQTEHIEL

Cc1ccc(C2=NN(c3ccccc3)C(=O)C23N=C([S@@+](C)[O-])N(C(=O)OC(C)(C)C)[C@]32C(=O)N(Cc3ccccc3)c3ccccc32)cc1 (stereo partly specified)
IC50 (Liver carboxylesterase 1): 0.39 µM

Cc1c(C(=O)CS(=O)(=O)c2ccccc2)c(=O)n(-c2ccccc2)n1C
IC50 (Alpha-glucosidase): 63.66 µM | Activity (Mus musculus [1]): 32.16% | Activity (Mus musculus [2]): 13.34% | IC50 [3]: 14.7 µM

CSc1ccc(Cc2c(C(F)(F)F)n[nH]c2O)cc1
Activity (Mus musculus [4]): 68% | Activity (Mus musculus [5]): 57% | Activity (Mus musculus [6]): 30%

CC1=NN(NCC(=O)c2ccccc2)C(=O)/C1=N/Nn1c(-c2ccccc2)nc2ccccc2c1=O
selectivity ratio [7]: 26.4 | MIC [8]: 3.11 µg/mL (≈ 6.49 µM)

NC(=S)N1N=C(N)/C(=C\c2cc(-c3ccc(Cl)cc3)nn2-c2ccccc2)C1=O
IC50 [9]: 6.3 µM
